pEC50: −log10 of the molar value.
Key:
hPPARα = target: T1, hPPARα (Homo sapiens, UniProt Q07869); assay: Gal4-hPPARα transactivation in COS-7 cells (luciferase); type: cell-based; details: for pEC50: Gal4-hPPARα chimera, COS-7 cells, 24 hours
T1 construct: DNA fragments amplified by PCR and corresponding to the DEF domains of human PPARα, PPARγ, and PPARδ nuclear receptors; expressed in transfected cells; host or cells: COS-7
T1 sequence (Q07869 239-466 limits assumed): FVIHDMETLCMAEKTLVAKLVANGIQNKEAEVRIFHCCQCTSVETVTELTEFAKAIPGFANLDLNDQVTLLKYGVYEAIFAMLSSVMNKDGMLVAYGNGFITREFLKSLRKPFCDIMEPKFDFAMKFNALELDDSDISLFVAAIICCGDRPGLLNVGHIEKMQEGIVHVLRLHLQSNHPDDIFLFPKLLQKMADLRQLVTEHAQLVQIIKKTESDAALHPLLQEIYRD
Method: The activation of PPARs was evaluated in vitro using a monkey kidney fibroblast line (COS-7) by measuring the transcriptional activity of chimeras made up of the DNA binding domain of the Gal4 transcription factor of yeast and of the binding domain to the ligand of the different PPARs. The compounds were tested at doses of between 0.01 and 100 μM on Gal4-PPARα, γ, and δ chimeras.
COS-7 cells came from ATCC (American type culture collection) and were cultivated in a DMEM medium supplemented with 10% (vol/vol) of fetal calf serum, 100 U/ml of penicillin (Gibco, Paisley, UK) and 2 mM of L-Glutamine (Gibco, Paisley, UK). The cells were incubated at 37° C. under humid atmosphere containing 5% CO2.
The plasmids Gal4(RE)_TkpGL3, pGal4-hPPARα, pGal4-hPPARγ, pGal4-hPPARδ and pGal4-φ have been described in the literature (Raspe E et al., 1999). The constructions pGal4-hPPARα, pGal4-hPPARγ, and pGal4-hPPARδ were obtained by cloning, in the pGal4-φ vector, DNA fragments amplified by PCR and corresponding to the DEF domains of human PPARα, PPARγ, and PPARδ nuclear receptors.
The COS-7 cells in suspension were transfected with 150 ng of DNA per well, with a pGal4-PPAR/Gal4(RE)_TkpGL3 ratio of 1/10, in presence of 10% fetal calf serum. The cells were then plated in 96-well plates (4×10^4 cells/well), then incubated for 24 hours at 37° C. Activation with the test compounds was performed for 24 hours at 37° C. in a medium without serum. At the end of the experiment, the cells were lysed and the luciferase activity was determined using the Steady-Lite™ HTS (Perkin Elmert) or the Steady Glow Luciferase kit (Promega), in accordance with the provider's recommendations.
The compounds according to the invention were tested at doses between 0,01 and 100 μM on the 3 PPAR isoforms. The results obtained are presented in detail under FIG. 1a.

db/db mouse = assay: Plasma lipids, glycemia and insulinemia in db/db mouse; type: in vivo; details: 28-day treatment per os
Method: The insulin-resistance and hypolipemic properties of the compounds according to the invention were evaluated in vivo by assaying the plasma lipid, by measuring the plasma glucose and insulin levels, and by an analysis of the gene expression of PPAR target genes, after a per os treatment with the compounds according to the invention. These tests were performed in the db/db mouse
Female db/db mice were kept on a 12 hour/12 hour light/dark cycle at a constant temperature of 20±3° C. After a one week acclimatization period, the mice were weighed and divided into groups of 8 animals selected so as to render uniform the distribution of their body weights and their plasma lipid rates, determined before the experiment. The tested compounds were suspended in carboxymethylcellulose (Sigma C4888) and administered by intra-gastric tube feeding once a day for 28 days at the chosen dose. The animals had free access to food and water (standard diet). Taking of food and weight gain are recorded throughout the experiment. At the end of the experiment, the animals were anesthetized after a 4 hour fast, a blood sample was taken using (EDTA) anticoagulant, then the mice were weighed and euthanized. The plasma was separated by centrifugation at 3000 rotations/minute for 20 minutes. The samples were kept at +4° C.
Plasma lipid concentrations (total cholesterol and triglycerides) were measured by enzymatic assays (bioMerieux-Lyon-France) according to the provider's recommendations.
Murine plasma glucose was measured according to an enzyme-colorimetric method using a Glucose RTU kit (Biomerieux). Glucose is transformed into gluconic acid under the action of glucose oxidase; the reaction releases hydrogen peroxide. Hydrogen peroxide was measured according to the Trinder reaction which, under the action of a peroxidase and in the presence of phenol and amino-4-antipyrine, produces water and a colored product, quinoneimine. The color intensity, due to the quinoneimine, is proportional to the amount of glucose present in the sample.
Murine insulin is measured using ELISA method (using the INSKR020 kit from provider Crystal chem.). A microplate is coated with a mouse anti-insulin antibody. Then, the serum to be assayed for insulin is placed onto the plate. A guinea pig anti-insulin antibody is used to recognize the complex formed by the mouse insulin and the anti-insulin monoclonal antibody. Finally an anti-guinea pig antibody labeled with peroxidase is added and bind to the guinea pig anti-insulin antibody. The colorimetric reaction is performed by adding an OPD (Ortho Phenyl Diamine) enzyme substrate. The intensity of the color is proportional to the amount of insulin present in the sample.

[1] = tested on: SHR rats (spontaneous hypertensive rats); assay: SHR rats treated 14 days: plasma triglycerides, arterial pressure, response to angiotensin II; type: in vivo, rat
Method: SHR rats (spontaneous hypertensive rats) (male sex—300-320 g—16-weeks old—Charles River France) were kept on a light/dark cycle of 12/12 hours at a constant temperature of 20±3° C. The compounds according to the invention being tested were suspended in carboxymethylcellulose (Sigma c4888) and administered to the animals by intra-gastric gavage, once a day for 14 days at the chosen doses. The animals had free access to food and water.
At the end of the experiment, after a 5-hour fast, the animals were anesthetized for surgery with pentobarbital (50 mg/kg). A catheter treated with heparin was placed in the carotid artery to measure arterial pressure. A second catheter was placed in the jugular vein to administer angiotensin II. Arterial pressure was measured and recorded at basal tone for 15 minutes. At this stage, the average arterial pressure of the control animals is compared to that of the animals having received the compounds according to the invention. After 15 minutes, three successive intravenous administrations of angiotensin II (50 ng/kg) were performed to evaluate the response to angiotensin II of animals treated with the compounds according to the invention.
At the end of the arterial pressure measurements, a blood sample was taken using anticoagulant (EDTA), then the animals were euthanized. The plasma was separated by centrifugation at 3000 rotations/minute for 20 minutes. The samples were kept at +4° C.
Plasma total concentrations of cholesterol, triglycerides, free fatty acids, and glucose were measured by enzymatic assays (bioMerieux-Lyon-France and Wako-Japan) according to the provider's recommendations.

Row | activation of hPPARα (luciferase activity) (hPPARα; COS-7 cells transfected pGal4-hPPAR, 0.01 to 100 μM) | pEC50 (hPPARα) | SMILES | glycemia (db/db mouse; 10, 30 or 100 mpk) | insulinemia (db/db mouse; 10, 30 or 100 mpk) | plasma free lipids level (db/db mouse; 10, 30 or 100 mpk) | plasma triglycerides level (db/db mouse; 10, 30 or 100 mpk) | arterial pressure before administrations of angiotensin II ([1]; 14 days of treatment, 150 mpk) | plasma triglyceride rate ([1]; 14 days of treatment, 150 mpk, intra-gastric) | hypertension induced by angiotensin II (difference of arterial pressure) ([1]; 14 days of treatment, 150 mpk, three intravenous administrations of angiotensin II 50 ng/kg) | glycemia (db/db mouse; 100 mpk) | insulinemia (db/db mouse; 100 mpk) | plasma free lipids level (db/db mouse; 100 mpk) | plasma triglycerides level (db/db mouse; 100 mpk) | hypertension induced by angiotensin II (difference of arterial pressure) ([1]; chronic treatment, 100 mpk, repeated administrations of angiotensin II)
1 | activate the two PPAR isoforms | 5.52 | CCCCC1=NC2(CCCC2)C(=O)N1Cc1ccc(-c2cccc(OC(C)(C)C(=O)O)c2)cc1 [Compound 1, 2-butyl-1-[(3′-((1-carboxy-1,1-dimethylmethyl)oxy)biphenyl-4-yl)methyl]-4-spirocyclopentyl-1H-imidazol-5(4H)-one] | decreased significantly (and dose-dependently) | decreased significantly (and dose-dependently) | decreased significantly (and dose-dependently) | decreased significantly (and dose-dependently) | antihypertensive effect | unexpectedly decreased | significant antagonist effect on angiotensin II | – | – | – | – | –
2 | – | 6.22 | CCCCC1=NC2(CCCCC2)C(=O)N1Cc1ccc(-c2cccc(OC(C)(C)C(=O)O)c2)cc1 [Compound 21, 2-butyl-1-[(3′-((1-carboxy-1,1-dimethylmethyl)oxy)biphenyl-4-yl)methyl]-4-spirocyclohexyl-1H-imidazol-5(4H)-one] | – | – | – | – | – | – | – | decreased significantly | decreased significantly | decreased significantly | decreased significantly | significant antagonist effect on angiotensin II

Source: patent publication US20100004159A1, “SUBSTITUTED IMIDAZOLONE DERIVATIVES, PREPARATIONS AND USES” (GENFIT, priority 2006, published 2010)
